Laboratory results from US9505769B2 (ASCENEURON SA, priority 2013, dated 2016).
Structures can show the parent of a compound that is named as a salt.

biological target: T1, human muscarinic acetylcholine M1 receptor (Homo sapiens, UniProt P11229); experiment: M1 PAM Assay (IP-One HTRF, IP1 accumulation in M1-CHO cells); format: cell-based; conditions: not given
T1 construct: expressed in transfected cells; host or cells: CHO-K1
T1 sequence (P11229 1-460): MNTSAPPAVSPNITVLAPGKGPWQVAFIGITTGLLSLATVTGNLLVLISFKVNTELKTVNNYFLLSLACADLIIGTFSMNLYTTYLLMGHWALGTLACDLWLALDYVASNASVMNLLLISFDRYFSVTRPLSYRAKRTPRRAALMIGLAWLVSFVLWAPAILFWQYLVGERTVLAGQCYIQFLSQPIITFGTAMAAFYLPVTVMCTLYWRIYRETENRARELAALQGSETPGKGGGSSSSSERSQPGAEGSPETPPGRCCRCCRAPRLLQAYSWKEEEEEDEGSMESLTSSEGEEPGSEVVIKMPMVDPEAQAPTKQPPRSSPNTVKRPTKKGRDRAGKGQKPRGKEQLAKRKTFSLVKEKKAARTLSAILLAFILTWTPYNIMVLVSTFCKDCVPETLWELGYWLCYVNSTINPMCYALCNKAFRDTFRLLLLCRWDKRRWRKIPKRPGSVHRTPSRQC
Method: Then diluted compounds (0.6% DMSO final concentration) are added together with EC20 of acetylcholine and incubated with the cells for 30 min at 37° C., 5% CO2.
CHO-K1 cells stably transfected with human muscarinic acetylcholine M1 receptor are cultured in Ham's F12 medium containing 10% heat inactivated fetal calf serum, 2 mM L-glutamine and Penicillin-Streptomycin grown in a humidified atmosphere at 5% CO2/95% air at 37° C.

Molecule	EC50 [nM]
O=C(c1ccc(F)cc1O[C@H]1C[C@H]2CC[C@@H](C1)N2CCO)N1Cc2nn3cc(Cl)cnc3c2C1 (single isomer, unassigned) [Example 50, (3-chloro-7H-pyrrolo[3′,4′:3,4]pyrazolo[1,5-a]pyrimidin-8(9H)-yl)(4-fluoro-2-{[(3-endo)-8-(2-hydroxyethyl)-8-azabicyclo[3.2.1]oct-3-yl]oxy}phenyl)methanone]	200 to 1000
Cc1nc2c3c(nn2c(C)c1Cl)CN(C(=O)c1ccc(F)cc1O[C@H]1C[C@H]2CC[C@@H](C1)N2CCF)C3 [Example 36, (3-chloro-2,4-dimethyl-7H-pyrrolo[3′,4′:3,4]pyrazolo[1,5-a]pyrimidin-8(9H)-yl)(4-fluoro-2-{[(3-endo)-8-(2-fluoroethyl)-8-azabicyclo[3.2.1]oct-3-yl]oxy}phenyl)methanone]	< 200
COCCN1[C@@H]2CC[C@H]1C[C@@H](Oc1cc(F)ccc1C(=O)N1Cc3nn4cc(Cl)cnc4c3C1)C2 [Example 52, (3-chloro-7H-pyrrolo[3′,4′:3,4]pyrazolo[1,5-a]pyrimidin-8(9H)-yl)(4-fluoro-2-{[(3-endo)-8-(2-methoxyethyl)-8-azabicyclo[3.2.1]oct-3-yl]oxy}phenyl)methanone]	200 to 1000
CN1[C@@H]2CC[C@H]1C[C@@H](Oc1cc(F)ccc1C(=O)N1Cc3nn4cc(C5CC5)cnc4c3C1)C2 [Example 74, (3-cyclopropyl-7H-pyrrolo[3′,4′:3,4]pyrazolo[1,5-a]pyrimidin-8(9H)-yl)(4-fluoro-2-{[(3-endo)-8-methyl-8-azabicyclo[3.2.1]oct-3-yl]oxy}phenyl)methanone]	< 200
CCN1[C@@H]2CC[C@H]1C[C@@H](Oc1cc(F)ccc1C(=O)N1Cc3nn4cc(Cl)cnc4c3C1)C2 [Example 63, (3-chloro-7H-pyrrolo[3′,4′:3,4]pyrazolo[1,5-a]pyrimidin-8(9H)-yl)(2-{[(3-endo)-8-ethyl-8-azabicyclo[3.2.1]oct-3-yl]oxy}-4-fluorophenyl)methanone]	< 200

same assay, conditions: CHO-K1 cells stably transfected with human M1 receptor; compounds added with EC20 of acetylcholine (25 nM), 30 min; intracellular IP1 by IP-One HTRF; read-out: M1 PAM EC50

Molecule	EC50 [nM]
Cc1nc2c3c(nn2c(C)c1Cl)CN(C(=O)c1ccc(F)cc1OCc1cccnc1)C3 [Example 19, (6-Chloro-5,7-dimethyl-1H,3H-2,4,7a,8-tetraaza-cyclopenta[a]inden-2-yl)-[4-fluoro-2-(pyridin-3-ylmethoxy)-phenyl]-methanone]	1000 to 3000
Cc1nc2c3c(nn2c(C)c1Cl)CN(C(=O)c1ccc(F)cc1O[C@H]1CCNC[C@@H]1F)C3 (racemic) [Example 1]	< 200
CCOC(=O)N1CCC(Oc2cc(F)ccc2C(=O)N2Cc3nn4c(C)c(Cl)c(C)nc4c3C2)CC1 [Example 28, 4-[2-(6-Chloro-5,7-dimethyl-1H,3H-2,4,7a,8-tetraaza-cyclopenta[a]indene-2-carbonynl)-5-fluoro-phenoxy]-piperidine-1-carboxylic acid ethyl ester]	1000 to 3000
Cc1nc2c3c(nn2c(C)c1Cl)CN(C(=O)c1ccccc1O[C@H]1CNC[C@H]1F)C3 (racemic) [Example 25, (syn)-(6-Chloro-5,7-dimethyl-1H,3H-2,4,7a,8-tetraaza-cyclopenta[a]inden-2-yl)-[2-(4-fluoro-pyrrolidin-3-yloxy)-phenyl]-methanone]	200 to 1000
Cc1nc2c3c(nn2c(C)c1Cl)CN(C(=O)c1ccc(F)cc1OCCn1cncn1)C3 [Example 20]	200 to 1000
Cc1nc2c3c(nn2c(C)c1Cl)CN(C(=O)c1ccc(F)cc1OCCN1CCCC1)C3 [Example 16, (3-Chloro-2,4-dimethyl-7H-pyrrolo[3′,4′:3,4]pyrazolo[1,5-a]pyrimidin-8(9H)-yl)(4-fluoro-2-(2-pyrrolidinoethoxy)phenyl)methanone]	< 200
(3-chloro-4-ethyl-2-methyl-7H-pyrrolo[3′,4′:3,4]pyrazolo[1,5-a]pyrimidin-8(9H)-yl)(2-((4-hydroxytetrahydrofuran-3-yl)oxy)phenyl)methanone or (3-chloro-2-ethyl-4-methyl-7H-pyrrolo[3′,4′:3,4]pyrazolo[1,5-a]pyrimidin-8(9H)-yl)(2-((4-hydroxytetrahydrofuran-3-yl)oxy)phenyl)methanone [Example 22]	1000 to 3000

Continued, values first:

EC50 [nM]	Molecule
200 to 1000	O=C(c1ccc(F)cc1OC1CCN(CCO)CC1)N1Cc2nn3cc(Cl)cnc3c2C1 [Example 35, (3-chloro-7H-pyrrolo[3′,4′:3,4]pyrazolo[1,5-a]pyrimidin-8(9H)-yl)(4-fluoro-2-((1-(2-hydroxyethyl)piperidin-4-yl)oxy)phenyl)methanone]
1000 to 3000	Cc1nc2c3c(nn2c(C)c1Cl)CN(C(=O)c1ccc(F)cc1OC1CN(CCF)C1)C3 [Example 46, (3-chloro-2,4-dimethyl-7H-pyrrolo[3′,4′:3,4]pyrazolo[1,5-a]pyrimidin-8(9H)-yl)(4-fluoro-2-((1-(2-fluoroethyl)azetidin-3-yl)oxy)phenyl)methanone]
200 to 1000	O=C(c1ccc(F)cc1OC1CCNCC1)N1Cc2nn3cc(Cl)cnc3c2C1 [Example 33, (3-chloro-7H-pyrrolo[3′,4′:3,4]pyrazolo[1,5-a]pyrimidin-8(9H)-yl)(4-fluoro-2-(piperidin-4-yloxy)phenyl)methanone hydrochloride]
< 200	CCN1CCC(Oc2cc(F)ccc2C(=O)N2Cc3nn4c(C)c(Cl)c(C)nc4c3C2)CC1 [Example 76, (6-Chloro-5,7-dimethyl-1H,3H-2,4,7a,8-tetraaza-cyclopenta[a]inden-2-yl)-[2-(1-ethyl-piperidin-4-yloxy)-4-fluoro-phenyl]-methanone]
1000 to 3000	Cc1nc2c3c(nn2c(C)c1Cl)CN(C(=O)c1ccc(F)cc1OCCN1CCC[C@H]1C)C3 (single isomer, unassigned) [Example 44]
< 200	Cc1nc2c3c(nn2c(C)c1Cl)CN(C(=O)c1ccc(F)cc1O[C@H]1CC[C@H](O)CC1)C3 (single isomer, unassigned) [Example 41, (anti)-(6-Chloro-5,7-dimethyl-1H,3H-2,4,7a8-tetraaza-cyclopenta[a]inden-2-yl)-[4-fluoro-2-(4-hydroxy-cyclohexyloxy)-phenyl]-methanone]
1000 to 3000	(syn)-(6-Chloro-5,7-dimethyl-1H,3H-2,4,7a,8-tetraaza-cyclopenta[a]inden-2-yl)-[4-fluoro-2-(4-fluoro-cyclohexyloxy)-phenyl]-methanone or (anti)-(6-Chloro-5,7-dimethyl-1H,3H-2,4,7a,8-tetraaza-cyclopenta[a]inden-2-yl)-[4-fluoro-2-(4-fluoro-cyclohexyloxy)-phenyl]-methanone [Example 54]
< 200	CCCN1CCC(Oc2cc(F)ccc2C(=O)N2Cc3nn4c(C)c(Cl)c(C)nc4c3C2)CC1 [Example 77, (6-Chloro-5,7-dimethyl-1H,3H-2,4,7a,8-tetraaza-cyclopenta[a]inden-2-yl)-[4-fluoro-2-(1-propyl-piperidin-4-yloxy)-phenyl]-methanone]
200 to 1000	Cc1ccc(CCOc2cc(F)ccc2C(=O)N2Cc3nn4c(C)c(Cl)c(C)nc4c3C2)cn1 [Example 42, (3-chloro-2,4-dimethyl-7H-pyrrolo[3′,4′:3,4]pyrazolo[1,5-a]pyrimidin-8(9H)-yl)(4-fluoro-2-(2-(6-methylpyridin-3-yl)ethoxy)phenyl)methanone]
200 to 1000	Cc1nc2c3c(nn2c(C)c1Cl)CN(C(=O)c1ccc(F)cc1OC1CN(CCO)C1)C3 [Example 30, (3-chloro-2,4-dimethyl-7H-pyrrolo[3′,4′:3,4]pyrazolo[1,5-a]pyrimidin-8(9H)-yl)(4-fluoro-2-((1-(2-hydroxyethyl)azetidin-3-yl)oxy)phenyl)methanone]
